Laboratory results taken from US20250296971A1, “GASTRIC INHIBITORY PEPTIDE RECEPTOR LIGANDS” (priority 2021, published 2025).
*1 amine or outer side, *2 acyl side, *3 side chain or, on linkers, in order; H or OH if unused. Where a SMILES comes first, the peptide text is derived from it. Bridges are numbered along the chain shown (N, C = ends). [ ]: non-standard residue; d: D form. The star is where a group is joined. X5 = NC(=O)[C@H](CCCCNC(=O)CN1CCN(CC(=O)O)CCN(CC(=O)O)CCN(CC(=O)O)CC1)NC(=O)CCC(=O)NCCCOCCOCCOCCCN*; X19 = O=C(O)CN1CCN(CC(=O)O)CCN(CC(=O)N2CCN(Cc3cc(C[*:1])cc(C[*:2])c3)CC2)CCN(CC(=O)O)CC1; X3 = O=C(O)CN1CCN(CC(=O)O)CCN(CC(=O)NCCCOCCOCCOCCCN*)CCN(CC(=O)O)CC1; NH(1-deoxy-D-glucityl) = OC[C@@H](O)[C@@H](O)[C@H](O)[C@@H](O)CN*; X26 = O=C(O)CN1CCN2CCN(CCN(CC(=O)*)CC1)CC(=O)[O][Zn][O]C(=O)C2; Trp(5-Cl) = N[C@@H](Cc1c[nH]c2ccc(Cl)cc12)C(=O)O; Trp(6-Cl) = N[C@@H](Cc1c[nH]c2cc(Cl)ccc12)C(=O)O; Propanoyl(3-(4-F-phenyl)) = O=C(CCc1ccc(F)cc1)*; Trp(6-F) = N[C@@H](Cc1c[nH]c2cc(F)ccc12)C(=O)O; 1Nal = N[C@@H](Cc1cccc2ccccc12)C(=O)O; Desaminotyrosyl = O=C(CCc1ccc(O)cc1)*; mXylylene = c1cc(C[*:1])cc(C[*:2])c1; Glutaryl = O=C(CCCC(=O)[*:2])[*:1]; Hydrocinnamoyl = O=C(CCc1ccccc1)*; X6 = c1cc(CSCCN[*:2])nc(C[*:1])c1; X7 = c1cc(CSCCN[*:2])cc(C[*:1])c1; Hyp = O=C(O)[C@@H]1C[C@@H](O)CN1; tBuAla = CC(C)(C)C[C@H](N)C(=O)O; Cha = N[C@@H](CC1CCCCC1)C(=O)O; Suc = O=C(CCC(=O)[*:2])[*:1]; Api = NC1(C(=O)O)CCNCC1; Thp = NC1(C(=O)O)CCOCC1; Deg = CCC(N)(CC)C(=O)O; Aib = CC(C)(N)C(=O)O

Biological target: T1, GIPR (CHO-K1-hGIPR cells) (Homo sapiens, UniProt P48546)
T1 construct: host or cells: CHO-K1
T1 sequence (P48546 22-466): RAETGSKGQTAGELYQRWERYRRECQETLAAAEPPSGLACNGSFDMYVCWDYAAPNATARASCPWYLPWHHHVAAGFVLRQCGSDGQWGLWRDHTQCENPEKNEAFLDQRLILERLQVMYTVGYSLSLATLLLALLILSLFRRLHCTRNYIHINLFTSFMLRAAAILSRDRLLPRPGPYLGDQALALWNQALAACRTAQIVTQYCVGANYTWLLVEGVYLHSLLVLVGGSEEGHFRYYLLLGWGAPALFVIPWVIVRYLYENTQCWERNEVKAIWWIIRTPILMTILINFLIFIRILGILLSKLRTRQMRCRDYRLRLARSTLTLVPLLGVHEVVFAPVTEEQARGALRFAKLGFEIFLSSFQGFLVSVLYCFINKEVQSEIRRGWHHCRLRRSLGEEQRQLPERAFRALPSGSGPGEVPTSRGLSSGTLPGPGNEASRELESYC
Test: FACS binding assay
Settings: competition with 20 nM GIP-057, 4° C., 1 hour, read-out: pIC50 Category (converted)
Method in brief: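 Peptide binding read by flow cytometry as APC-channel median fluorescence, fitted with a four-parameter logistic to yield EC50 or IC50. Cells were hGIPR-transfected CHO-K1 in PBS with 1% FCS, detected with 1 μg/mL APC-streptavidin, 30 min on ice.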

Compound	IC50
CC[C@H](C)[C@@H]1NC(=O)[C@H](CC(C)C)NC(=O)C(C)(C)NC(=O)[C@@H](NC(=O)[C@H](CC(C)(C)C)NC(=O)[C@H](CCC(=O)O)NC(=O)[C@@H]2CCCN2C(=O)[C@H](Cc2c[nH]c3ccccc23)NC(=O)[C@H](Cc2c[nH]c3ccccc23)NC(=O)[C@H](CC(=O)O)NC(C)=O)CSCc2cccc(c2)CSC[C@@H](C(=O)NCCCOCCOCCOCCCNC(=O)CCC(=O)N[C@@H](CCCCNC(=O)CN2CCN(CC(=O)O)CCN(CC(=O)O)CCN(CC(=O)O)CC2)C(N)=O)NC1=O [GIP-132, Ac-Asp-Trp-Trp-Pro-Glu-Npg-[Cys(3MeBn)-Aib-Leu-Ile-Cys]-Ttds-Lys(DOTA)-NH2] (Ac-DWWPE[tBuAla]C[Aib]LIC-X5; linker 7-11 via mXylylene)	10 to 79.4 nM
CC[C@H](C)[C@@H]1NC(=O)[C@H](CC(C)(C)C)NC(=O)C(C)(C)NC(=O)[C@@H](NC(=O)[C@H](CC(C)C)NC(=O)[C@H](CCC(=O)O)NC(=O)[C@@H]2CCCN2C(=O)[C@H](Cc2c[nH]c3ccccc23)NC(=O)[C@H](Cc2c[nH]c3ccccc23)NC(=O)[C@H](CC(=O)O)NC(C)=O)CSCc2cccc(c2)CSC[C@@H](C(=O)NCCCOCCOCCOCCCNC(=O)CCC(=O)N[C@@H](CCCCNC(=O)CN2CCN(CC(=O)O)CCN(CC(=O)O)CCN(CC(=O)O)CC2)C(N)=O)NC1=O [GIP-133, Ac-Asp-Trp-Trp-Pro-Glu-Leu-[Cys(3MeBn)-Aib-Npg-Ile-Cys]-Ttds-Lys(DOTA)-NH2] (Ac-DWWPELC[Aib][tBuAla]IC-X5; linker 7-11 via mXylylene)	10 to 79.4 nM
CC[C@H](C)[C@@H]1NC(=O)[C@H](CC2CCCCC2)NC(=O)C(C)(C)NC(=O)[C@@H](NC(=O)[C@H](CC(C)C)NC(=O)[C@H](CCC(=O)O)NC(=O)[C@@H]2CCCN2C(=O)[C@H](Cc2c[nH]c3ccccc23)NC(=O)[C@H](Cc2c[nH]c3ccccc23)NC(=O)[C@H](CC(=O)O)NC(C)=O)CSCc2cccc(c2)CSC[C@@H](C(=O)NCCCOCCOCCOCCCNC(=O)CCC(=O)N[C@@H](CCCCNC(=O)CN2CCN(CC(=O)O)CCN(CC(=O)O)CCN(CC(=O)O)CC2)C(N)=O)NC1=O [GIP-134, Ac-Asp-Trp-Trp-Pro-Glu-Leu-[Cys(3MeBn)-Aib-Cha-Ile-Cys]-Ttds-Lys(DOTA)-NH2] (Ac-DWWPELC[Aib][Cha]IC-X5; linker 7-11 via mXylylene)	10 to 79.4 nM
CC[C@H](C)[C@@H]1NC(=O)[C@H](CC(C)C)NC(=O)C(C)(C)NC(=O)[C@@H](NC(=O)[C@@H](CC(C)C)NC(=O)[C@H](CCC(=O)O)NC(=O)[C@@H]2CCCN2C(=O)[C@H](Cc2c[nH]c3ccccc23)NC(=O)[C@H](Cc2c[nH]c3ccccc23)NC(=O)[C@H](CC(=O)O)NC(=O)CCc2ccccc2)CSCc2cccc(c2)CSC[C@@H](C(=O)NCCCOCCOCCOCCCNC(=O)CCC(=O)N[C@@H](CCCCNC(=O)CN2CCN(CC(=O)O)CCN(CC(=O)O)CCN(CC(=O)O)CC2)C(N)=O)NC1=O [GIP-135, Php-Asp-Trp-Trp-Pro-Glu-leu-[Cys(3MeBn)-Aib-Leu-Ile-Cys]-Ttds-Lys(DOTA)-NH2] (Hydrocinnamoyl-DWWPE[dL]C[Aib]LIC-X5; linker 7-11 via mXylylene)	10 to 79.4 nM
CC[C@H](C)[C@@H]1NC(=O)[C@H](CC(C)C)NC(=O)C(C)(C)NC(=O)[C@@H](NC(=O)[C@@H](CC(C)C)NC(=O)[C@H](CCC(=O)O)NC(=O)[C@@H]2CCCN2C(=O)[C@H](Cc2c[nH]c3ccccc23)NC(=O)[C@H](Cc2c[nH]c3ccccc23)NC(=O)[C@H](CC(=O)O)NC(=O)CCc2ccc(F)cc2)CSCc2cccc(c2)CSC[C@@H](C(=O)NCCCOCCOCCOCCCNC(=O)CCC(=O)N[C@@H](CCCCNC(=O)CN2CCN(CC(=O)O)CCN(CC(=O)O)CCN(CC(=O)O)CC2)C(N)=O)NC1=O [GIP-136, 4FPhp-Asp-Trp-Trp-Pro-Glu-leu-[Cys(3MeBn)-Aib-Leu-Ile-Cys]-Ttds-Lys(DOTA)-NH2] ({Propanoyl(3-(4-F-phenyl))}-DWWPE[dL]C[Aib]LIC-X5; linker 7-11 via mXylylene)	10 to 79.4 nM
CC[C@H](C)[C@@H]1NC(=O)[C@H](CC(C)C)NC(=O)C(C)(C)NC(=O)[C@@H](NC(=O)[C@@H](CC(C)C)NC(=O)[C@H](CCC(=O)O)NC(=O)[C@@H]2CCCN2C(=O)[C@H](Cc2c[nH]c3ccccc23)NC(=O)[C@H](Cc2c[nH]c3ccccc23)NC(=O)[C@H](CC(=O)O)NC(=O)CCc2ccc(O)cc2)CSCc2cccc(c2)CSC[C@@H](C(=O)NCCCOCCOCCOCCCNC(=O)CCC(=O)N[C@@H](CCCCNC(=O)CN2CCN(CC(=O)O)CCN(CC(=O)O)CCN(CC(=O)O)CC2)C(N)=O)NC1=O [GIP-137, 4OHPhp-Asp-Trp-Trp-Pro-Glu-leu-[Cys(3MeBn)-Aib-Leu-Ile-Cys]-Ttds-Lys(DOTA)-NH2] (Desaminotyrosyl-DWWPE[dL]C[Aib]LIC-X5; linker 7-11 via mXylylene)	10 to 79.4 nM
CC(=O)N[C@@H](CC(=O)O)C(=O)N[C@@H](Cc1c[nH]c2ccccc12)C(=O)N[C@@H](Cc1cccc2ccccc12)C(=O)N1CCC[C@H]1C(=O)N[C@@H](CCC(=O)O)C(=O)N[C@H](CC(C)C)C(=O)N[C@H]1CSCc2cccc(c2)CSC[C@@H](C(=O)NCCCOCCOCCOCCCNC(=O)CCC(=O)N[C@@H](CCCCNC(=O)CN2CCN(CC(=O)O)CCN(CC(=O)O)CCN(CC(=O)O)CC2)C(N)=O)NC(=O)[C@H](C(C)C)NC(=O)[C@H](CC(C)C)NC(=O)[C@H](C)NC1=O [GIP-138, Ac-Asp-Trp-1Ni-Pro-Glu-leu-[Cys(3MeBn)-Ala-Leu-Val-Cys]-Ttds-Lys(DOTA)-NH2] (Ac-DW[1Nal]PE[dL]CALVC-X5; linker 7-11 via mXylylene)	10 to 79.4 nM
CC[C@H](C)[C@@H]1NC(=O)[C@H](CC(C)C)NC(=O)C(CC)(CC)NC(=O)[C@@H](NC(=O)[C@@H](CC(C)C)NC(=O)[C@H](CCC(=O)O)NC(=O)[C@@H]2CCCN2C(=O)[C@H](Cc2cccc3ccccc23)NC(=O)[C@H](Cc2c[nH]c3ccccc23)NC(=O)[C@H](CC(=O)O)NC(C)=O)CSCc2cccc(c2)CSC[C@@H](C(=O)NCCCOCCOCCOCCCNC(=O)CCC(=O)N[C@@H](CCCCNC(=O)CN2CCN(CC(=O)O)CCN(CC(=O)O)CCN(CC(=O)O)CC2)C(N)=O)NC1=O [GIP-139, Ac-Asp-Trp-1Ni-Pro-Glu-leu-[Cys(3MeBn)-Deg-Leu-Ile-Cys]-Ttds-Lys(DOTA)-NH2] (Ac-DW[1Nal]PE[dL]C[Deg]LIC-X5; linker 7-11 via mXylylene)	10 to 79.4 nM
CC[C@H](C)[C@@H]1NC(=O)[C@H](CC(C)C)NC(=O)C(C)(C)NC(=O)[C@@H](NC(=O)[C@@H](CC(C)C)NC(=O)[C@H](CCC(=O)O)NC(=O)[C@@H]2CCCN2C(=O)[C@H](Cc2c[nH]c3cc(F)ccc23)NC(=O)[C@H](Cc2c[nH]c3ccccc23)NC(=O)[C@H](CC(=O)O)NC(C)=O)CSCc2cccc(c2)CSC[C@@H](C(=O)NCCCOCCOCCOCCCNC(=O)CCC(=O)N[C@@H](CCCCNC(=O)CN2CCN(CC(=O)O)CCN(CC(=O)O)CCN(CC(=O)O)CC2)C(N)=O)NC1=O [GIP-140, Ac-Asp-Trp-6Fw-Pro-Glu-leu-[Cys(3MeBn)-Aib-Leu-Ile-Cys]-Ttds-Lys(DOTA)-NH2] (Ac-DW[Trp(6-F)]PE[dL]C[Aib]LIC-X5; linker 7-11 via mXylylene)	10 to 79.4 nM
CC[C@H](C)[C@@H]1NC(=O)[C@H](CC(C)C)NC(=O)C(C)(C)NC(=O)[C@@H](NC(=O)[C@@H](CC(C)C)NC(=O)[C@H](CCC(=O)O)NC(=O)[C@@H]2CCCN2C(=O)[C@H](Cc2c[nH]c3ccccc23)NC(=O)[C@H](Cc2c[nH]c3cc(Cl)ccc23)NC(=O)[C@H](CC(=O)O)NC(=O)CCC(=O)NCCCOCCOCCOCCCNC(=O)CN2CCN(CC(=O)O)CCN(CC(=O)O)CCN(CC(=O)O)CC2)CSCc2cccc(c2)CSCCNC1=O [GIP-141, DOTA-Ttds-Asp-6Clw-Trp-Pro-Glu-leu-[Cys(3MeBn)-Aib-Leu-Ile-AET]] ({X3-Suc}-D[Trp(6-Cl)]WPE[dL]C[Aib]LI; linker 7-C via X7)	10 to 79.4 nM
CC[C@H](C)[C@@H]1NC(=O)[C@H](CC(C)C)NC(=O)C2(CCOCC2)NC(=O)[C@@H](NC(=O)[C@@H](CC(C)C)NC(=O)[C@H](CCC(=O)O)NC(=O)[C@@H]2C[C@@H](O)CN2C(=O)[C@H](Cc2c[nH]c3ccc(Cl)cc23)NC(=O)[C@H](Cc2c[nH]c3ccccc23)NC(=O)[C@H](CC(=O)O)NC(C)=O)CSCc2cc(cc(CN3CCN(C(=O)CN4CCN(CC(=O)O)CCN(CC(=O)O)CCN(CC(=O)O)CC4)CC3)c2)CSC[C@@H](C(N)=O)NC1=O [GIP-145, Ac-Asp-Trp-5Clw-Hyp-Glu-leu-[Cys(tMeBn(DOTA-PP))-Thp-Leu-Ile-Cys]-NH2] (Ac-DW[Trp(5-Cl)][Hyp]E[dL]C[Thp]LIC-NH2; linker 7-11 via X19)	10 to 79.4 nM
CC[C@H](C)[C@@H]1NC(=O)[C@H](CC(C)C)NC(=O)C2(CCN(C(=O)CN3CCN(CC(=O)O)CCN4CCN(CC3)CC(=O)[O][Zn][O]C(=O)C4)CC2)NC(=O)[C@@H](NC(=O)[C@@H](CC(C)C)NC(=O)[C@H](CCC(=O)O)NC(=O)[C@@H]2C[C@@H](O)CN2C(=O)[C@H](Cc2c[nH]c3ccc(Cl)cc23)NC(=O)[C@H](Cc2c[nH]c3ccccc23)NC(=O)[C@H](CC(=O)O)NC(=O)CCCC(=O)NC[C@H](O)[C@@H](O)[C@H](O)[C@H](O)CO)CSCc2cccc(n2)CSCCNC1=O [GIP-147, AGLU-Glutar-Asp-Trp-5Clw-Hyp-Glu-leu-[Cys(2Lut)-Apc(ZnDOTA)-Leu-Ile-AET]] ({NH(1-deoxy-D-glucityl)-Glutaryl}-DW[Trp(5-Cl)][Hyp]E[dL]C[Api](X26)LI; linker 7-C via X6)	< 10 nM
